Columns and labels:
Assay type in all cases: cell-based
[1] = tested on: human dermal fibroblasts CCC-ESF-1; assay: Anti-fibrosis activity test: inhibition of proliferation of human dermal fibroblasts CCC-ESF-1 (CCK-8); conditions: Fibroblast
Summary of the method: (§1)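 Proliferation read by CCK-8 (2 h, A450) after 48 h compound treatment of cells plated at 2×10^4 cells/mL and allowed 24 h attachment, triplicate per concentration. Inhibition rate derived from absorbance relative to untreated blank, with IC50 fitted; pirfenidone as positive control.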

[2] = tested on: human fibrosarcoma cells HT-1080; assay: Anti-fibrosis activity test: inhibition of proliferation of human fibrosarcoma cells HT-1080 (CCK-8); conditions: Homo sapiens, HT-1080, 48 h
Summary of the method: as §1

[3] = tested on: human lung fibroblasts HFL1; assay: Anti-fibrosis activity test: inhibition of proliferation of human lung fibroblasts HFL1 (CCK-8); conditions: Homo sapiens, HFL1, 48 h
Summary of the method: as §1

[4] = tested on: NF-κB; assay: Immunological activity test: inhibition of NF-κB activity; conditions: initial concentration of 30 μM; a/b isomers given as first/second symbol; read-out: IC50 (μM), inhibitory activity against NF-κB
Summary of the method: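 IC50 values were derived after initial screening of compounds at 30 μM for NF-κB inhibitory activity, with parthenolide serving as the positive control.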

[5] = tested on: cardiac fibroblast RAT-iCell-C002; assay: Anti-fibrosis activity test: inhibition of proliferation of cardiac fibroblast RAT-iCell-C002 (CCK-8); conditions: Cardiac fibroblast, 48 h
Summary of the method: as §1

[6] = tested on: human hepatic stellate cells LX-2; assay: Anti-fibrosis activity test: inhibition of proliferation of human hepatic stellate cells LX-2 (CCK-8); conditions: Homo sapiens, 48 h
Summary of the method: as §1

[7] = tested on: BHK-21 cells; assay: Anti-fibrosis activity test: inhibition of BHK-21 cell proliferation (CCK-8); conditions: Mesocricetus auratus, BHK-21, 48 h
Summary of the method: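 Proliferation of BHK-21 cells is measured by CCK-8 at 450 nm following 48 h compound exposure at several concentrations. Inhibition is expressed relative to blank control and IC50 is computed from it.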

[8] = tested on: mouse macrophages (RAW264.7); assay: Lipopolysaccharide-induced NO secretion in macrophages (Griess); conditions: Mus musculus, RAW264.7, 24 h, RAW264.7, LPS 1 μg/ml, a/b isomers given as first/second symbol, read-out: IC50 (μM), inhibition of lipopolysaccharide-induced NO secretion in macrophages
Summary of the method: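 Percent inhibition of NO release was measured by Griess absorbance at 548 nm in supernatants. Cells were mouse RAW264.7 macrophages in 10% FBS DMEM, treated with graded compound concentrations and activated by LPS (1 μg/ml) for 24 h.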

[9] = tested on: human embryonic lung fibroblast IMR-90; assay: Anti-fibrosis activity test: inhibition of proliferation of human embryonic lung fibroblast IMR-90 (CCK-8)
Summary of the method: as §1

[10] = human dermal fibroblasts CCC-ESF-1, CCK-8, 48 hours
[11] = human fibrosarcoma cells HT-1080, CCK-8, 48 hours
[12] = human lung fibroblasts HFL1, CCK-8, 48 hours
[13] = cardiac fibroblast RAT-iCell-C002, CCK-8, 48 hours
[14] = human hepatic stellate cells LX-2, CCK-8, 48 hours
[15] = CCK-8, 48 hours after administration
[16] = human embryonic lung fibroblast IMR-90, CCK-8, 48 hours
[17] = Homo sapiens, CCC-ESF-1 cells, 48 h, CCK-8
[18] = Homo sapiens, IMR-90 cells, 48 h, CCK-8

Compound	IC50 [2, 11]	IC50 [4]	IC50 [8]	IC50 ([2]; HT-1080 cells, 48 h, CCK-8)	IC50 [1, 10]	IC50 [3, 12]	IC50 [5, 13]	IC50 [6, 14]	IC50 [7, 15]	IC50 [9, 16]	IC50 [1, 17]	IC50 ([3]; HFL1 cells, 48 h, CCK-8)	IC50 ([5]; RAT-iCell-C002 cells, CCK-8)	IC50 ([6]; LX-2, 48 h, LX-2 cells, CCK-8)	IC50 ([7]; 48 h, CCK-8)	IC50 [9, 18]
O=C(COc1c2c(nc3ccccc13)-c1cccn1C2=O)c1ccc(Cl)cc1 [Compound 90b, 9-(2-(4-chlorophenyl)-2-oxoethoxy)-10H-pyrrolizino[1,2-b]quinolin-10-one]	5 to 20 mM	1 to 10 µM	0.1 to 1 µM		0.05 to 5 mM	0.05 to 5 mM	0.05 to 5 mM	0.05 to 5 mM	0.05 to 5 mM	0.05 to 5 mM						
O=C1c2c([nH]c3c(C(F)(F)F)cccc3c2=O)-c2cccn21 [Compound 448a, 5-(Trifluoromethyl)-9H-pyrrolizino[1,2-b]quinoline-9,10(4H)-dione]	0.05 to 5 mM	1 to 10 µM	0.1 to 1 µM		0.05 to 5 mM	0.05 to 5 mM	0.05 to 5 mM	0.05 to 5 mM	0.05 to 5 mM	0.05 to 5 mM						
O=C1c2c(nc3ccccc3c2OCc2ccc(F)cc2F)-c2cccn21 [Compound 578b, 9-((2,4-difluorobenzyl)oxy)-10H-pyrrolizino[1,2-b]quinolin-10-one]	0.05 to 5 mM	1 to 10 µM	1 to 10 µM		0.05 to 5 mM	0.05 to 5 mM	0.05 to 5 mM	0.05 to 5 mM	0.05 to 5 mM	0.05 to 5 mM						
O=C1c2c(n(Cc3c(F)c(F)c(F)c(F)c3F)c3ccccc3c2=O)-c2cccn21 [Compound 586a, 4-((Perfluorophenyl)methyl)-9H-pyrrolizino[1,2-b]quinoline-9,10(4H)-dione]	0.05 to 5 mM	1 to 10 µM	0.1 to 1 µM		0.05 to 5 mM	0.05 to 5 mM	0.05 to 5 mM	0.05 to 5 mM	0.05 to 5 mM	0.05 to 5 mM						
COc1cccc2c(O)c3c(nc12)-c1cccn1C3=O [Compound 446b, 9-hydroxy-5-methoxy-10H-pyrrolizino[1,2-b]quinolin-10-one]	0.05 to 5 mM	0.001 to 0.1 µM	1 to 10 µM		0.05 to 5 mM	0.05 to 5 mM	0.05 to 5 mM	0.05 to 5 mM	0.05 to 5 mM	0.05 to 5 mM						
O=C1c2c(n(Cc3cc(F)ccc3F)c3ccccc3c2=O)-c2cccn21 [Compound 573a, 4-(2,5-Difluorobenzyl)-9H-pyrrolizino[1,2-b]quinoline-9,10(4H)-dione]	0.05 to 5 mM	1 to 10 µM	1 to 10 µM		0.05 to 5 mM	0.05 to 5 mM	0.05 to 5 mM	0.05 to 5 mM	0.05 to 5 mM	< 0.05 mM						
O=C1c2c(n(Cc3ccc(Cl)cc3)c3cc(F)ccc3c2=O)-c2cccn21 [Compound 496a, 4-(4-Chlorobenzyl)-6-fluoro-9H-pyrrolizino[1,2-b]quinoline-9,10(4H)-dione]	0.05 to 5 mM	10 to 50 µM	10 to 50 µM		0.05 to 5 mM	0.05 to 5 mM	0.05 to 5 mM	0.05 to 5 mM	0.05 to 5 mM	0.05 to 5 mM						
O=C1c2c(nc3ccc(OC(F)(F)F)cc3c2O)-c2cccn21 [Compound 306b, 9-hydroxy-7-(trifluoromethoxy)-10H-pyrrolizino[1,2-b]quinolin-10-one]	0.05 to 5 mM	1 to 10 µM	0.1 to 1 µM		0.05 to 5 mM	0.05 to 5 mM	0.05 to 5 mM	0.05 to 5 mM	0.05 to 5 mM	0.05 to 5 mM						
O=C1c2c(n(Cc3ccc(F)cc3Cl)c3ccccc3c2=O)-c2cccn21 [Compound 572a, 4-(2-Chloro-4-fluorobenzyl)-9H-pyrrolizino[1,2-b]quinoline-9,10(4H)-dione]	0.05 to 5 mM	0.001 to 0.1 µM	0.1 to 1 µM		0.05 to 5 mM	0.05 to 5 mM	0.05 to 5 mM	0.05 to 5 mM	0.05 to 5 mM	0.05 to 5 mM						

The next lines start with results.

IC50 [2, 11]	IC50 [4]	IC50 [8]	IC50 ([2]; HT-1080 cells, 48 h, CCK-8)	Compound	IC50 [1, 10]	IC50 [3, 12]	IC50 [5, 13]	IC50 [6, 14]	IC50 [7, 15]	IC50 [9, 16]	IC50 [1, 17]	IC50 ([3]; HFL1 cells, 48 h, CCK-8)	IC50 ([5]; RAT-iCell-C002 cells, CCK-8)	IC50 ([6]; LX-2, 48 h, LX-2 cells, CCK-8)	IC50 ([7]; 48 h, CCK-8)	IC50 [9, 18]
0.05 to 5 mM	1 to 10 µM	1 to 10 µM		O=C1c2c(n(Cc3cccc(C(F)(F)F)c3)c3ccccc3c2=O)-c2cccn21 [Compound 598a, 4-(3-(Trifluoromethyl)benzyl)-9H-pyrrolizino[1,2-b]quinoline-9,10(4H)-dione]	0.05 to 5 mM	0.05 to 5 mM	0.05 to 5 mM	0.05 to 5 mM	0.05 to 5 mM	0.05 to 5 mM						
0.05 to 5 mM	1 to 10 µM	1 to 10 µM		CC(C)(O)Cn1c2c(c(=O)c3ccccc31)C(=O)n1cccc1-2 [Compound 660a, 4-(2-Hydroxy-2-methylpropyl)-9H-pyrrolizino[1,2-b]quinoline-9,10(4H)-dione]	0.05 to 5 mM	0.05 to 5 mM	0.05 to 5 mM	0.05 to 5 mM	0.05 to 5 mM	0.05 to 5 mM						
0.05 to 5 mM	1 to 10 µM	1 to 10 µM		N#Cc1ccc(COc2c3c(nc4ccccc24)-c2cccn2C3=O)cc1 [Compound 590b, 4-(((10-oxo-10H-pyrrolizino[1,2-b]quinolin-9-yl)oxy)methyl)benzonitrile]	0.05 to 5 mM	0.05 to 5 mM	0.05 to 5 mM	0.05 to 5 mM	0.05 to 5 mM	0.05 to 5 mM						
	1 to 10 µM	1 to 10 µM	0.05 to 5 mM	O=C1c2c(nc3ccccc3c2OCc2ccccc2[N+](=O)[O-])-c2cccn21 [Compound 668b, 9-((2-nitrobenzyl)oxy)-10H-pyrrolizino[1,2-b]quinolin-10-one]							0.05 to 5 mM	0.05 to 5 mM	0.05 to 5 mM	0.05 to 5 mM	0.05 to 5 mM	0.05 to 5 mM
0.05 to 5 mM	1 to 10 µM	1 to 10 µM		O=C1c2c(n(Cc3ccc(F)c(F)c3)c3ccccc3c2=O)-c2cccn21 [Compound 601a, 4-(3,4-Difluorobenzyl)-9H-pyrrolizino[1,2-b]quinoline-9,10(4H)-dione]	0.05 to 5 mM	0.05 to 5 mM	0.05 to 5 mM	0.05 to 5 mM	0.05 to 5 mM	0.05 to 5 mM						
	1 to 10 µM	1 to 10 µM	0.05 to 5 mM	O=C1c2c(nc3ccccc3c2OCCCN2CCNCC2)-c2cccn21 [Compound 669b, 9-(3-(piperazin-1-yl)propoxy)-10H-pyrrolizino[1,2-b]quinolin-10-one]							0.05 to 5 mM	0.05 to 5 mM	0.05 to 5 mM	0.05 to 5 mM	0.05 to 5 mM	0.05 to 5 mM
	0.1 to 1 µM	1 to 10 µM	0.05 to 5 mM	Cc1cccc2c(=O)c3c([nH]c12)-c1cccn1C3=O [Compound 732a, 5-Methyl-9H-pyrrolizino[1,2-b]quinoline-9,10(4H)-dione]							< 0.05 mM	0.05 to 5 mM	0.05 to 5 mM	0.05 to 5 mM	< 0.05 mM	0.05 to 5 mM
0.05 to 5 mM	1 to 10 µM	10 to 50 µM		O=C1c2c(n(Cc3ccccc3Br)c3ccccc3c2=O)-c2cccn21 [Compound 612a, 4-(2-Bromobenzyl)-9H-pyrrolizino[1,2-b]quinoline-9,10(4H)-dione]	0.05 to 5 mM	0.05 to 5 mM	0.05 to 5 mM	0.05 to 5 mM	0.05 to 5 mM	0.05 to 5 mM						
0.05 to 5 mM	1 to 10 µM	0.1 to 1 µM		O=C1c2c(nc3ccccc3c2OCCCN2CCOCC2)-c2cccn21 [Compound 663b, 9-(3-morpholinopropoxy)-10H-pyrrolizino[1,2-b]quinolin-10-one]	0.05 to 5 mM	0.05 to 5 mM	0.05 to 5 mM	0.05 to 5 mM	0.05 to 5 mM	0.05 to 5 mM						
	1 to 10 µM	1 to 10 µM	0.05 to 5 mM	O=C1c2c(n(CCCN3CCCCC3)c3ccccc3c2=O)-c2cccn21 [Compound 666a, 4-(3-(Piperidin-1-yl)propyl)-9H-pyrrolizino[1,2-b]quinoline-9,10(4H)-dione]							0.05 to 5 mM	0.05 to 5 mM	0.05 to 5 mM	0.05 to 5 mM	0.05 to 5 mM	0.05 to 5 mM
